Assay results published in patent US8314150B2, “Kinase protein binding inhibitors” (priority 2008, dated 2012).

Experiments:
Panc-1 cells = experiment: Apoptosis assay (Hoechst staining), Panc-1; format: cell-based, human
Description: Cell Viability Assay—The Cells were treated with peptides for 24 hours at different peptide concentrations. The 3-(4,5-dimethylthiazol-2-yl)-5-(3-carboxymethoxyphenyl)-2-(4-sulfophenyl)-2H-tetrazolium compound from Promega Viability kit (Madison, Ill.) was added, and the cells were incubated at 37° C. for 1-2 hours. The optical density on 96-plate was analyzed with a microplate reader at 490 nm to determine cell viability. In addition, cells were stained with trypan blue after 24 hours of treatment with Y15 and the percent of cells that stained positive were determined with a hemacytometer. Cell adhesion assay—The poly-L-Lysine or Collagen (5 μg/ml) coated 96-well plates were blocked with the blocking buffer (medium with 0.5% BSA) for 1 hour at 37 C. The cells were pre-treated with drugs for 3 hours and plated for adhesion at 4×10^5 cells. Cells were incubated at 37 C for 1 hour, fixed in 3.7% formaldehyde, washed in 0.1% BSA in PBS and stained with crystal violet (5 mg/ml in 2% ethanol) for 10 minutes. Then 2% SDS was added to the dried plated and OD at 590 nm was measured for detecting cell adhesion. […] Protein concentrations were determined using a Bio-Rad Kit. The boiled samples were loaded on Ready SDS-10% PAGE gels (Bio Rad, Inc) and used for Western blot analysis with the protein-specific antibody. […] Detachment Assay—Cells were plated with and without inhibitors for 24 hours, and detached and attached cells were counted in a hemocytometer. We calculated the percent of detachment by dividing the number of detached cells by the total number of cells. The percent of detached cells was calculated in three independent experiments. […] The percent of apoptotic cells was calculated as a ratio of apoptotic detached cells divided by the total number of cells in three independent experiments in several fields with the fluorescent microscope. For each experiment 300 cells per treatment were counted. […]

[1] = system: normal breast epithelial cells (MCF10A); experiment: Trypan blue staining, normal breast epithelial cells; format: cell-based, human; details: doses up to 10 μM
Description: (§1) Cell Viability Assay—The Cells were treated with peptides for 24 hours at different peptide concentrations. The 3-(4,5-dimethylthiazol-2-yl)-5-(3-carboxymethoxyphenyl)-2-(4-sulfophenyl)-2H-tetrazolium compound from Promega Viability kit (Madison, Ill.) was added, and the cells were incubated at 37° C. for 1-2 hours. The optical density on 96-plate was analyzed with a microplate reader at 490 nm to determine cell viability. In addition, cells were stained with trypan blue after 24 hours of treatment with Y15 and the percent of cells that stained positive were determined with a hemacytometer. […] Then 2% SDS was added to the dried plated and OD at 590 nm was measured for detecting cell adhesion. […] Protein concentrations were determined using a Bio-Rad Kit. The boiled samples were loaded on Ready SDS-10% PAGE gels (Bio Rad, Inc) and used for Western blot analysis with the protein-specific antibody. […] Detachment Assay—Cells were plated with and without inhibitors for 24 hours, and detached and attached cells were counted in a hemocytometer. We calculated the percent of detachment by dividing the number of detached cells by the total number of cells. The percent of detached cells was calculated in three independent experiments. […] For each experiment 300 cells per treatment were counted. […]

Y397-FAK phosphorylation = experiment: Y397-FAK levels in BT474 tumors (Western blotting, immunohistochemistry); format: in vivo; details: 30 mg/kg, vs untreated mice
Description: as §1

Panc-1 tumor cells = experiment: Panc-1 subcutaneous tumor growth in nude mice; format: in vivo; details: 30 mg/kg each, daily intraperitoneal
Description: as §1

[2] = system: tumor associated fibroblasts; experiment: Trypan blue staining, tumor associated fibroblasts; format: cell-based; details: increasing doses, 24 hours
Description: as §1

Structure (SMILES): Cl.Cl.Cl.Cl.Nc1cc(N)c(N)cc1N [Y15, 1,2,4,5-benzenetetraamine tetrahydrochloride]
- apoptotic nuclei (Hoechst) (Panc-1 cells; 50 μM): no detection of apoptotic nuclei
- increase in apoptosis (Panc-1 cells; 50-100 μM, not significant): less than 10%
- cell viability (trypan blue) [1]: no decrease in cell viability
- Y397-FAK phosphorylation in tumors (Y397-FAK phosphorylation): less Y397-FAK phosphorylation
- total FAK levels in tumors (Y397-FAK phosphorylation): the same
- tumor growth (Panc-1 tumor cells): inhibited tumor growth even better than gemcitabine alone
- cell viability (trypan blue) [2]: no significant decrease in viability
